Measured values from ChEMBL document CHEMBL3045840, “Application of pocket modeling and k-nearest neighbor molecular field analysis (kNN-MFA) for designing of some anticoagulants: potential factor IXa inhibitors” (Med Chem Res, 2013).
Values after ≈ are worked out from the molar mass of the structure shown.

Key:
[1] = Anticoagulant activity in plasma assessed as elongation in mean prothrombin time after 5 min by Quick's method; format: functional, cell-free
[2] = Octanol-water partition coefficient, log P of the compound; format: physicochemical

Compound	IC50 [1]	logP [2]
C/C(CC(=O)Nc1nnc(-c2ccc(O)cc2)s1)=N\c1ccccn1	3100 µg/mL (≈ 8.77 mM)	3.43
C/C(CC(=O)Nc1nnc(/C=C/c2ccccc2)s1)=N\c1ccc([N+](=O)[O-])cn1	3000 µg/mL (≈ 7.34 mM)	4.13
C/C(CC(=O)Nc1nnc(-c2ccc([N+](=O)[O-])cc2)s1)=N\c1ccc([N+](=O)[O-])cn1	1200 µg/mL (≈ 2.81 mM)	3.54
C/C(CC(=O)Nc1nnc(-c2ccc(N)cc2)s1)=N\c1ccccn1	3500 µg/mL (≈ 9.93 mM)	3.3
C/C(CC(=O)Nc1nnc(-c2ccc(N)cc2)s1)=N\c1ccc([N+](=O)[O-])cn1	2700 µg/mL (≈ 6.79 mM)	3.21
C/C(CC(=O)Nc1nnc(-c2ccc([N+](=O)[O-])cc2)s1)=N\c1ccccn1	1200 µg/mL (≈ 3.14 mM)	3.63
CC(=O)Oc1ccccc1-c1nnc(NC(=O)C/C(C)=N/c2ccccn2)s1	2600 µg/mL (≈ 6.57 mM)	3.65
C/C(CC(=O)Nc1nnc(/C=C/c2ccccc2)s1)=N\c1ccccn1	2400 µg/mL (≈ 6.6 mM)	4.22
CC(=O)Oc1ccccc1-c1nnc(NC(=O)C/C(C)=N/c2ccc([N+](=O)[O-])cn2)s1	2100 µg/mL (≈ 4.77 mM)	3.55
C/C(CC(=O)Nc1nnc(-c2ccc(O)cc2)s1)=N\c1ccc([N+](=O)[O-])cn1	2800 µg/mL (≈ 7.03 mM)	3.34
